Assay results as given in the supplement of paper PMC10883282.
± gives the standard deviation of the averaged measurements.

Assays:
Assay in all cases: relative viability vs DMSO control (72 h) (fraction); higher = more viable cells
[1] = tested on: SW1353
How it was run: (§1)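 Sarcoma cell lines were seeded in 384-well plates at densities set to reach 80–90% confluence. After 24 h, 2.5 µl of serially diluted compound was added (source plates 10 mM to 0.0002 mM), and plates were held 72 h at 37 °C, 5% CO2, with 0.1% DMSO vehicle and a 5 µM positive control. Relative viability came from ATPLite readings as percent growth, averaged over up to triplicate wells. Data were rescaled so full viability equals 1 and none equals 0.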

[2] = tested on: KHOS-NP
How it was run: as §1

[3] = tested on: A204
How it was run: as §1

[4] = tested on: HT1080
How it was run: as §1

[5] = tested on: SK-ES-1
How it was run: as §1

[6] = tested on: SW982
How it was run: as §1

[7] = tested on: KHOS-240S
How it was run: as §1

[8] = tested on: RD-ES
How it was run: as §1

[9] = tested on: SW684
How it was run: as §1

[10] = tested on: SYO-1
How it was run: as §1

[11] = tested on: G401
How it was run: as §1

[12] = tested on: SW872
How it was run: as §1

CCOc1cc2ncc(C#N)c(Nc3ccc(OCc4ccccn4)c(Cl)c3)c2cc1NC(=O)/C=C/[C@H]1CCCN1C [Pyrotinib]
Settings	relative viability
[1], 5.081 pM	1.06 ± 0.036
[1], 15.24 pM	1.05 ± 0.025
[1], 45.72 pM	1.03 ± 0.023
[1], 0.000137174 µM	0.994 ± 0.018
[1], 0.000411523 µM	1.01 ± 0.027
[1], 0.00123457 µM	1.04 ± 0.041
[1], 0.0037037 µM	1.02 ± 0.031
[1], 0.0111111 µM	1.02 ± 0.089
[1], 0.0333333 µM	0.947 ± 0.033
[1], 0.1 µM	0.889 ± 0.026
[1], 0.3 µM	0.791 ± 0.029
[2], 5.081 pM	1.08 ± 0.029
[2], 15.24 pM	1.12 ± 0.014
[2], 45.72 pM	1.08 ± 0.025
[2], 0.000137174 µM	1.11 ± 0.013
[2], 0.000411523 µM	1.07 ± 0.015
[2], 0.00123457 µM	1.09 ± 0.013
[2], 0.0037037 µM	1.07 ± 0.014
[2], 0.0111111 µM	1.1 ± 0.018
[2], 0.0333333 µM	1.073 ± 0.0071
[2], 0.1 µM	1.09 ± 0.036
[2], 0.3 µM	1.08 ± 0.039
[3], 5.081 pM	1.04 ± 0.042
[3], 15.24 pM	1.07 ± 0.064
[3], 45.72 pM	1.08 ± 0.048
[3], 0.000137174 µM	1.04 ± 0.025
[3], 0.000411523 µM	1.06 ± 0.071
[3], 0.00123457 µM	1.07 ± 0.034
[3], 0.0037037 µM	1.09 ± 0.069
[3], 0.0111111 µM	1.11 ± 0.043
[3], 0.0333333 µM	1.07 ± 0.032
[3], 0.1 µM	1.1 ± 0.052
[3], 0.3 µM	1.06 ± 0.013
[4], 5.081 pM	1.07 ± 0.012
[4], 15.24 pM	1.13 ± 0.054
[4], 45.72 pM	1.103 ± 0.0081
[4], 0.000137174 µM	1.13 ± 0.014
[4], 0.000411523 µM	1.11 ± 0.019
[4], 0.00123457 µM	1.06 ± 0.027
[4], 0.0037037 µM	1.12 ± 0.012
[4], 0.0111111 µM	1.09 ± 0.021
[4], 0.0333333 µM	1.078 ± 0.01
[4], 0.1 µM	1.07 ± 0.03
[4], 0.3 µM	1.08 ± 0.052
[5], 5.081 pM	0.989 ± 0.035
[5], 15.24 pM	1.02 ± 0.041
[5], 45.72 pM	1.07 ± 0.028
[5], 0.000137174 µM	1.07 ± 0.045
[5], 0.000411523 µM	1.02 ± 0.034
[5], 0.00123457 µM	1.04 ± 0.041
[5], 0.0037037 µM	1.02 ± 0.047
[5], 0.0111111 µM	1.04 ± 0.044
[5], 0.0333333 µM	0.992 ± 0.058
[5], 0.1 µM	0.987 ± 0.042
[5], 0.3 µM	0.8694 ± 0.0074
[6], 5.081 pM	1 ± 0.021
[6], 15.24 pM	1.03 ± 0.039
[6], 45.72 pM	1.05 ± 0.051
[6], 0.000137174 µM	1.09 ± 0.032
[6], 0.000411523 µM	1.05 ± 0.025
[6], 0.00123457 µM	1.04 ± 0.049
[6], 0.0037037 µM	1.03 ± 0.047
[6], 0.0111111 µM	1.03 ± 0.032
[6], 0.0333333 µM	1.03 ± 0.067
[6], 0.1 µM	1.02 ± 0.022
[6], 0.3 µM	0.952 ± 0.036
[7], 5.081 pM	1.07 ± 0.014
[7], 15.24 pM	1.08 ± 0.036
[7], 45.72 pM	1.06 ± 0.026
[7], 0.000137174 µM	1.06 ± 0.054
[7], 0.000411523 µM	1.05 ± 0.018
[7], 0.00123457 µM	1.08 ± 0.026
[7], 0.0037037 µM	1.07 ± 0.044
[7], 0.0111111 µM	1.06 ± 0.058
[7], 0.0333333 µM	1.09 ± 0.075
[7], 0.1 µM	1.08 ± 0.041
[7], 0.3 µM	1.05 ± 0.03
[8], 5.081 pM	0.971 ± 0.028
[8], 15.24 pM	0.968 ± 0.014
[8], 45.72 pM	0.969 ± 0.026
[8], 0.000137174 µM	0.978 ± 0.032
[8], 0.000411523 µM	0.983 ± 0.039
[8], 0.00123457 µM	0.971 ± 0.017
[8], 0.0037037 µM	0.965 ± 0.022
[8], 0.0111111 µM	0.9672 ± 0.0053
[8], 0.0333333 µM	0.953 ± 0.012
[8], 0.1 µM	0.955 ± 0.047
[8], 0.3 µM	0.95 ± 0.02
[9], 5.081 pM	1.15 ± 0.079
[9], 15.24 pM	1.24 ± 0.029
[9], 45.72 pM	1.221 ± 0.0063
[9], 0.000137174 µM	1.188 ± 0.0051
[9], 0.000411523 µM	1.19 ± 0.025
[9], 0.00123457 µM	1.17 ± 0.033
[9], 0.0037037 µM	1.21 ± 0.048
[9], 0.0111111 µM	1.19 ± 0.12
[9], 0.0333333 µM	1.15 ± 0.056
[9], 0.1 µM	1.17 ± 0.051
[9], 0.3 µM	1.1 ± 0.036
[10], 5.081 pM	1.01 ± 0.024
[10], 15.24 pM	0.951 ± 0.038
[10], 45.72 pM	0.958 ± 0.014
[10], 0.000137174 µM	0.943 ± 0.043
[10], 0.000411523 µM	0.92 ± 0.062
[10], 0.00123457 µM	0.948 ± 0.067
[10], 0.0037037 µM	0.858 ± 0.059
[10], 0.0111111 µM	0.9 ± 0.025
[10], 0.0333333 µM	0.896 ± 0.059
[10], 0.1 µM	0.862 ± 0.034
[10], 0.3 µM	0.89 ± 0.07
[11], 5.081 pM	1.04 ± 0.035
[11], 15.24 pM	1.03 ± 0.016
[11], 45.72 pM	1.03 ± 0.041
[11], 0.000137174 µM	1.05 ± 0.037
[11], 0.000411523 µM	1.06 ± 0.0079
[11], 0.00123457 µM	1.02 ± 0.035
[11], 0.0037037 µM	1.02 ± 0.021
[11], 0.0111111 µM	1.024 ± 0.0064
[11], 0.0333333 µM	1.02 ± 0.049
[11], 0.1 µM	1.02 ± 0.049
[11], 0.3 µM	1.01 ± 0.013
[12], 5.081 pM	1.05 ± 0.049
[12], 15.24 pM	1.06 ± 0.054
[12], 45.72 pM	1.06 ± 0.044
[12], 0.000137174 µM	1.06 ± 0.032
[12], 0.000411523 µM	1.07 ± 0.038
[12], 0.00123457 µM	1.05 ± 0.016
[12], 0.0037037 µM	0.987 ± 0.077
[12], 0.0111111 µM	1.01 ± 0.057
[12], 0.0333333 µM	1.04 ± 0.016
[12], 0.1 µM	0.987 ± 0.046
[12], 0.3 µM	0.913 ± 0.049
